Laboratory results: patent publication US20250304559A1, “Ether-Linked Antiviral Compounds” (Pfizer Inc., priority 2021, published 2025)
pEC50, pKi: −log10 of the molar value. Where two headings read alike, the source gives them in different places.

Assays:
[1] = target: T1, SARS-CoV-2 3CL protease (Severe acute respiratory syndrome coronavirus 2, UniProt P0DTD1); test: SARS-CoV-2 Coronavirus 3C Protease FRET Assay; format: biochemical; settings: Morrison equation fit, 15 nM enzyme, 25 μM peptide substrate; for pKi: Examples 1-13, 60 minutes at 23° C., read-out: Geometric Mean Ki; for Ki: Examples 14-78 and 114 (second head of Table 2), read-out: Geometric Mean Ki (nM) IC50
T1 construct: measures the activity of full-length SARS-CoV-2 3CL protease

[2] = system: SARS-CoV-2 (USA_WA1/2020); test: Antiviral Activity from SARS-CoV-2 Infection (cytopathic effect, Cell Titer-Glo); format: cell-based; settings: VeroE6 cells enriched for hACE2, MOI 0.002, 3-day incubation, tested alone or with P-gp inhibitor CP-100356 2 μM (table does not say which), read-out: Geometric Mean EC50
[3] = Severe acute respiratory syndrome coronavirus 2, Vero C1008, 72 h

SMILES | pKi [1] | pEC50 [2, 3] | Ki [1] | pEC50 [2]
CC(C)[C@H](NS(=O)(=O)C(F)(F)F)C(=O)N1C[C@H]2[C@@H]([C@H]1C(=O)N[C@@H](C[C@@H]1CCNC1=O)C(=O)COc1cccc(C(F)(F)F)c1)C2(C)C [Example 5, (1R,2S,5S)-6,6-dimethyl-N-{(2S)-3-oxo-1-[(3S)-2-oxopyrrolidin-3-yl]-4-[3-(trifluoromethyl)phenoxy]butan-2-yl}-3-{N-[(trifluoromethyl)sulfonyl]-L-valyl}-3-azabicyclo[3.1.0]hexane-2-carboxamide] | 7.97 | 6.69 |  | 
Cc1ccc2c(OCC(=O)[C@H](C[C@@H]3CCNC3=O)NC(=O)[C@@H]3[C@@H]4[C@H](CN3C(=O)[C@@H](NC(=O)C(F)(F)F)C(C)C)C4(C)C)noc2c1 [Example 51, (1R,2S,5S)-6,6-dimethyl-N-{(2S)-4-[(6-methyl-1,2-benzoxazol-3-yl)oxy]-3-oxo-1-[(3S)-2-oxopyrrolidin-3-yl]butan-2-yl}-3-[N-(trifluoroacetyl)-L-valyl]-3-azabicyclo[3.1.0]hexane-2-carboxamide] |  | 7.03 | 10.5 nM | 
CC[C@@H]([C@H](NS(=O)(=O)C(F)(F)F)C(=O)N1C[C@H]2[C@@H]([C@H]1C(=O)N[C@@H](C[C@@H]1CCNC1=O)C(=O)COc1ccc(F)cc1F)C2(C)C)C(F)(F)F [Example 70, (1R,2S,5S)-N-{(2S)-4-(2,4-difluorophenoxy)-3-oxo-1-[(3S)-2-oxopyrrolidin-3-yl]butan-2-yl}-6,6-dimethyl-3-[3′,3′,3′-trifluoro-N-(trifluoromethanesulfonyl)-L-isoleucyl]-3-azabicyclo[3.1.0]hexane-2-carboxamide] |  | 5.26 | 203 nM | 
CC(C)[C@H](NS(C)(=O)=O)C(=O)N1CCC(C)(C)CC1C(=O)N[C@@H](C[C@@H]1CCNC1=O)C(=O)COc1ccc(F)cc1F (single isomer, unassigned) [Example 60, (2R*)-N-{(2S)-4-(2,4-difluorophenoxy)-3-oxo-1-[(3S)-2-oxopyrrolidin-3-yl]butan-2-yl}-1-[N-(methanesulfonyl)-L-valyl]-4,4-dimethylpiperidine-2-carboxamide] |  | 6.34 | 21.8 nM | 
CC(C)[C@H](NC(=O)C(F)(F)F)C(=O)N1CC[C@@H](C)C[C@H]1C(=O)N[C@@H](C[C@@H]1CCNC1=O)C(=O)COc1ccc(F)cc1F (relative stereo) [Example 69, (2R*,4S*)-N-{(2S)-4-(2,4-difluorophenoxy)-3-oxo-1-[(3S)-2-oxopyrrolidin-3-yl]butan-2-yl}-4-methyl-1-[N-(trifluoroacetyl)-L-valyl]piperidine-2-carboxamide] |  | 6.25 | 219 nM | 
CC(C)[C@H](NC(=O)C(F)(F)F)C(=O)N1C[C@H]2[C@@H]([C@H]1C(=O)N[C@@H](C[C@@H]1CCNC1=O)C(=O)COc1cnsn1)C2(C)C [Example 62, (1R,2S,5S)-6,6-dimethyl-N-{(2S)-3-oxo-1-[(3S)-2-oxopyrrolidin-3-yl]-4-[(1,2,5-thiadiazol-3-yl)oxy]butan-2-yl}-3-[N-(trifluoroacetyl)-L-valyl]-3-azabicyclo[3.1.0]hexane-2-carboxamide] |  | 5.73 | 55.7 nM | 
CC(C)[C@H](NC(=O)C(F)(F)F)C(=O)N1C[C@H]2[C@@H]([C@H]1C(=O)NC(C[C@@H]1CCNC1=O)C(=O)COc1ccc(F)cc1F)C2(C)C (mixture of isomers) [Example 35, (1R,2S,5S)-N-{(2RS)-4-(2,4-difluorophenoxy)-3-oxo-1-[(3S)-2-oxopyrrolidin-3-yl]butan-2-yl}-6,6-dimethyl-3-[N-(trifluoroacetyl)-L-valyl]-3-azabicyclo[3.1.0]hexane-2-carboxamide] |  | 7.03 | 2.76 nM | 
CC(C)[C@H](NS(C)(=O)=O)C(=O)N1CCC2(CC2)C[C@H]1C(=O)N[C@@H](C[C@@H]1CCNC1=O)C(=O)COc1ccc(F)cc1F (single isomer, unassigned) [Example 66, (5R*)-N-{(2S)-4-(2,4-difluorophenoxy)-3-oxo-1-[(3S)-2-oxopyrrolidin-3-yl]butan-2-yl}-6-[N-(methanesulfonyl)-L-valyl]-6-azaspiro[2.5]octane-5-carboxamide, DIAST-2] |  |  | 15.7 nM | 6.17
CC(C)(C)[C@H](NS(=O)(=O)C(F)(F)F)C(=O)N1C[C@H]2[C@@H]([C@H]1C(=O)N[C@@H](C[C@@H]1CCNC1=O)C(=O)COc1cccc(Cl)c1)C2(C)C [Example 28, (1R,2S,5S)-N-{(2S)-4-(3-chlorophenoxy)-3-oxo-1-[(3S)-2-oxopyrrolidin-3-yl]butan-2-yl}-6,6-dimethyl-3-[3-methyl-N-(trifluoromethanesulfonyl)-L-valyl]-3-azabicyclo[3.1.0]hexane-2-carboxamide] |  | 7.77 | 2.15 nM | 
COC(=O)N[C@H](C(=O)N1C[C@H]2[C@@H]([C@H]1C(=O)N[C@@H](C[C@@H]1CCNC1=O)C(=O)COc1cccc(Cl)c1)C2(C)C)C(C)(C)C [Example 16, methyl {(2S)-1-[(1R,2S,5S)-2-({(2S)-4-(3-chlorophenoxy)-3-oxo-1-[(3S)-2-oxopyrrolidin-3-yl]butan-2-yl}carbamoyl)-6,6-dimethyl-3-azabicyclo[3.1.0]hexan-3-yl]-3,3-dimethyl-1-oxobutan-2-yl}carbamate] |  | 7.94 | 0.21 nM | 
CC(C)[C@H](NC(=O)C(F)(F)F)C(=O)N1C[C@H]2[C@@H]([C@H]1C(=O)N[C@@H](C[C@@H]1CC(O)NC1=O)C(=O)COc1ccc(F)cc1F)C2(C)C (stereo partly drawn) [Example 39, (1R,2S,5S)-N-{(2S)-4-(2,4-difluorophenoxy)-1-[(3R)-5-hydroxy-2-oxopyrrolidin-3-yl]-3-oxobutan-2-yl}-6,6-dimethyl-3-[N-(trifluoroacetyl)-L-valyl]-3-azabicyclo[3.1.0]hexane-2-carboxamide] |  | 6.51 | 3.7 nM | 
CC(C)c1cccc(OCC(=O)[C@H](C[C@@H]2CCNC2=O)NC(=O)[C@@H]2[C@@H]3[C@H](CN2C(=O)[C@@H](NC(=O)C(F)(F)F)C(C)C)C3(C)C)c1 [Example 56, (1R,2S,5S)-6,6-dimethyl-N-{(2S)-3-oxo-1-[(3S)-2-oxopyrrolidin-3-yl]-4-[3-(propan-2-yl)phenoxy]butan-2-yl}-3-[N-(trifluoroacetyl)-L-valyl]-3-azabicyclo[3.1.0]hexane-2-carboxamide] |  | 6.92 | 14.4 nM | 
CC(C)(C)[C@H](NS(=O)(=O)C(F)(F)F)C(=O)N1C[C@H]2[C@@H]([C@H]1C(=O)N[C@@H](C[C@@H]1CCNC1=O)C(=O)COc1cccc(C(F)(F)F)c1)C2(C)C [Example 10, (1R,2S,5S)-6,6-dimethyl-3-{3-methyl-N-[(trifluoromethyl)sulfonyl]-L-valyl}-N-{(2S)-3-oxo-1-[(3S)-2-oxopyrrolidin-3-yl]-4-[3-(trifluoromethyl)phenoxy]butan-2-yl}-3-azabicyclo[3.1.0]hexane-2-carboxamide] | 8.08 | 6.78 |  | 
CC(C)[C@H](NC(=O)C(F)(F)F)C(=O)N1C[C@H]2[C@@H]([C@H]1C(=O)N[C@@H](C[C@@H]1CCNC1=O)C(=O)COc1ccc(F)cc1)C2(C)C [Example 52, (1R,2S,5S)-N-{(2S)-4-(4-fluorophenoxy)-3-oxo-1-[(3S)-2-oxopyrrolidin-3-yl]butan-2-yl}-6,6-dimethyl-3-[N-(trifluoroacetyl)-L-valyl]-3-azabicyclo[3.1.0]hexane-2-carboxamide] |  | 7.13 | 10.5 nM | 
CC(C)[C@H](NC(=O)C(F)(F)F)C(=O)N1C[C@H]2[C@@H]([C@H]1C(=O)N[C@@H](C[C@@H]1CCNC1=O)C(=O)COc1ncnn1-c1ccccc1)C2(C)C [Example 64, (1R,2S,5S)-6,6-dimethyl-N-{(2S)-3-oxo-1-[(3S)-2-oxopyrrolidin-3-yl]-4-[(1-phenyl-1H-1,2,4-triazol-5-yl)oxy]butan-2-yl}-3-[N-(trifluoroacetyl)-L-valyl]-3-azabicyclo[3.1.0]hexane-2-carboxamide] |  | 5.27 | 62.2 nM | 
CC(C)[C@H](NC(=O)C(F)(F)F)C(=O)N1C[C@H]2[C@@H]([C@H]1C(=O)N[C@@H](C[C@@H]1CCNC1=O)C(=O)COc1ccccc1F)C2(C)C [Example 47, (1R,2S,5S)-N-{(2S)-4-(2-fluorophenoxy)-3-oxo-1-[(3S)-2-oxopyrrolidin-3-yl]butan-2-yl}-6,6-dimethyl-3-[N-(trifluoroacetyl)-L-valyl]-3-azabicyclo[3.1.0]hexane-2-carboxamide] |  | 7.22 | 8.58 nM | 
COc1ccc(COCC(=O)[C@H](C[C@@H]2CCNC2=O)NC(=O)[C@@H]2[C@@H]3[C@H](CN2C(=O)[C@@H](NC(=O)C(F)(F)F)C(C)(C)C)C3(C)C)cc1 [Example 14, (1R,2S,5S)-N-{(2S)-4-[(4-methoxyphenyl)methoxy]-3-oxo-1-[(3S)-2-oxopyrrolidin-3-yl]butan-2-yl}-6,6-dimethyl-3-[3-methyl-N-(trifluoroacetyl)-L-valyl]-3-azabicyclo[3.1.0]hexane-2-carboxamide] |  | 7.31 | 3.48 nM | 
Cc1cc(OCC(=O)[C@H](C[C@@H]2CCNC2=O)NC(=O)[C@@H]2[C@@H]3[C@H](CN2C(=O)[C@@H](NC(=O)C(F)(F)F)C(C)C)C3(C)C)no1 [Example 61, (1R,2S,5S)-6,6-dimethyl-N-{(2S)-4-[(5-methyl-1,2-oxazol-3-yl)oxy]-3-oxo-1-[(3S)-2-oxopyrrolidin-3-yl]butan-2-yl}-3-[N-(trifluoroacetyl)-L-valyl]-3-azabicyclo[3.1.0]hexane-2-carboxamide] |  | 5.74 | 31.7 nM | 
